Assay results from PubChem BioAssay AID1996.
Values after ≈ are worked out from the molar mass of the structure shown.

Settings: buffer; pH 7.4; 200.0 µM

Compound | solubility kinetic [µg/mL]
CC1(C(=O)NCCOc2ccccc2Cl)CC1(Cl)Cl (centres undefined) | > 48.4
O=C(NCc1ccco1)C1CC(=O)N(c2cccc(Cl)c2)C1 (centres undefined) | 39.7 (≈ 125 µM)
CCC(Oc1ccccc1)C(=O)Nc1ccccc1N1CCCCC1 (centres undefined) | 0.7 (≈ 2.07 µM)
COc1cccc(/C=C(\CC(=O)O)c2nc3ccccc3s2)c1 | 41.1 (≈ 126 µM)
COCCCn1c(SCC(=O)c2ccccc2)nc2ccccc2c1=O | 1.1 (≈ 2.99 µM)
Cc1ccnc(N2CCC(C(=O)NNC(=O)c3ccncc3)CC2)n1 | > 51.1
N#C/C(=C\c1ccccc1[N+](=O)[O-])C(=O)NCc1ccccc1 | > 46.1
CCN(CC)c1ccc(N=Cc2c(O)n(CCc3ccc(OC)c(OC)c3)c(=O)[nH]c2=O)cc1 | 9.5 (≈ 20.4 µM)
O=C(/C=C/c1c(Cl)cccc1Cl)N1CCOCC1 | > 42.9
COc1cc(OC)nc(Oc2ccccc2/C=N/O)n1 | > 41.3
Cc1cccc(NC2SC(=O)NC2=O)c1 (centres undefined) | > 33.3
CCc1cccc(C)c1NC(=O)CC(C)(C)CC(=O)O | > 41.6
COc1ccccc1NS(=O)(=O)c1ccc2ccccc2c1 | 12.1 (≈ 38.6 µM)
CSc1ccccc1-c1nc(-c2ccncc2)no1 | 1.2 (≈ 4.46 µM)
CC(C)NC(=O)c1ccc2c(c1)N(CC(=O)N1CCCCC1)C(=O)C(C)(C)O2 | 44.8 (≈ 116 µM)
O=C(CN1CCN(c2ccccc2)CC1)N1CCc2ccccc21 | 7 (≈ 21.8 µM)
COc1ccc(S(=O)(=O)NCCc2ccncc2)cc1 | 40.7 (≈ 139 µM)
CNc1nc(C23CC4CC(CC(C4)C2)C3)cs1 | 13 (≈ 52.3 µM)
CCC(C)(C)c1ccc(OCC(=O)Nc2ccncc2)cc1 | 2.6 (≈ 8.71 µM)
O=C(Nc1ccc2c(c1)OCO2)C1CC1 | > 30.8
COC(=O)c1cc(S(=O)(=O)NC2CCCCC2)cn1C | 42 (≈ 140 µM)
Cc1ccc(N2CC(O)Cn3c2nc2c3c(=O)n(C)c(=O)n2C)cc1 (centres undefined) | 24.5 (≈ 71.8 µM)
Cc1nc(NC(=O)CN2CC(C)OC(C)C2)sc1C(=O)N(C)C (centres undefined) | 44.2 (≈ 130 µM)
Nc1ccccc1C#Cc1ccc([N+](=O)[O-])cc1 | 1.1 (≈ 4.62 µM)

Compound | solubility kinetic [µg/mL]
O=C(COC(=O)c1ccc2c(c1)OCO2)Nc1ccccc1Cl | 3.5 (≈ 10.5 µM)
O=S(=O)(c1ccc(Cl)cc1)N1CCCC(C(F)(F)F)C1 (centres undefined) | 1 (≈ 3.05 µM)
Cn1c(O)c(/C=N/NC(=O)c2ccncc2)c(=O)n(C)c1=S | > 47.9
COc1ccc(OCCN2CCOCC2)cc1 | 30.9 (≈ 130 µM)
CCc1ccc(C(=O)NNC(=O)[C@H](C)NC(=O)c2ccco2)cc1 | > 49.4
CC1(C)CC2CC(C)(CN2C(=O)COC(=O)c2cccnc2Cl)C1 (centres undefined) | > 52.6
O=C1C(Nc2ccccc2)=C2CCCC=C2N1c1ccccc1 | 1.8 (≈ 5.95 µM)
COC1=C(N)C(=O)c2nc(-c3nc(C(=O)O)c(C)c(-c4ccc(OC)c(OC)c4O)c3N)ccc2C1=O | 74.9 (≈ 148 µM)
COc1cc(NC(=O)Cc2ccccc2)c(C(=O)O)cc1OC | 43.5 (≈ 138 µM)
CCC1CCCCN1C(=O)COC(=O)c1cccs1 (centres undefined) | > 42.2
O=C(Nc1ccc(Br)cc1)N1CCCCCC1 | 7.6 (≈ 25.6 µM)
CC1CC(C)CN(CC(O)COC2CC(C)CC(C)(C)C2)C1.Cl (centres undefined) | 47.9
O=C(COC(=O)c1ccc2ccccc2n1)c1ccccc1 | 42.3 (≈ 145 µM)
Cc1ccccc1OCCC(=O)OCC(=O)NC1CC1 | > 41.6
CCNC(=O)NNC(=O)C1CC(c2cccnc2)=NO1 (centres undefined) | > 41.6
Cc1ccsc1C(=O)Nc1nc2ccccc2[nH]1 | 2 (≈ 7.77 µM)
CC(=O)Nc1ccc(S(=O)(=O)NCc2ccc(C)n2C)cc1 | > 48.2
Cc1csc(NC(=O)c2cc(C)on2)n1 | > 33.5
Cc1cc(C(=O)NC2CCCC2)c2ccccc2n1 | > 38.1
Cc1nc(Nc2cccc(F)c2)c2oc3ccccc3c2n1 | < 0.2
Cc1cnc([N+](=O)[O-])n1CCOC(=O)NC(=O)c1ccccc1 | 44.4 (≈ 139 µM)
COc1ccc(C(=O)N2CCC(O)(c3ccc(Cl)cc3)CC2)cc1OC | > 56.4
COc1ccc(NC(=O)CSc2nc(C)cs2)c([N+](=O)[O-])c1 | 45.1 (≈ 133 µM)
C/C(=N\n1c(C)nc2ccccc2c1=O)c1ccc(N)cc1 | > 43.9

Compound | solubility kinetic [µg/mL]
CN(CC(=O)Nc1ccccc1)CC(=O)Nc1ccc(F)cc1 | 30.7 (≈ 97.4 µM)
CCOc1ccccc1NC(=O)Cc1cccs1 | 33.6 (≈ 129 µM)
O=C(COC(=O)CCc1c[nH]c2ccccc12)NCc1ccc2c(c1)OCO2 | 43 (≈ 113 µM)
COc1cc(OC)c(N(C)S(=O)(=O)c2cccc(C(=O)Nc3nccs3)c2)cc1Cl | 4.2 (≈ 8.98 µM)
CCOC(=O)C1=C(c2ccccc2)NC(=O)NC1c1cccc(OC)c1OC (centres undefined) | > 57.4
Cc1nc(C(=O)N2CCCC(Nc3ccc(C)c(C)c3)C2)cs1 (centres undefined) | > 49.4
CC(C)COC(=O)c1ccc(N2C(=O)c3ccccc3C2=O)cc1 | 2.1 (≈ 6.49 µM)
COc1ccccc1Oc1nc([N+](=O)[O-])nn1CC(N)=O | > 44
Cc1ccc(C(C)C)c(OCC#CCN2CCCC2)c1.O=C(O)C(=O)O | 25.7
CN1c2ccccc2C(=O)/C(=C\Nc2ncccn2)S1(=O)=O | 2.8 (≈ 8.85 µM)
CN1C(=O)NC(=O)/C(=C/c2ccc(C(=O)O)cc2)C1=O | > 41.1
N#Cc1c(N)c(C(=O)c2ccccc2)n2ccccc12 | 31.4 (≈ 120 µM)
NC(=O)C1CCN(C(=O)c2ccc(Cl)c(S(=O)(=O)N3CCCCCC3)c2)CC1 | > 64.2
CCOC(=O)c1sc(=NC(=O)/C=C/c2ccccc2)n(C)c1C | < 0.4
O=C(Nc1ccncc1)Nc1ccc(Cl)cc1 | 9.8 (≈ 39.6 µM)
O=C(Nc1cc2c(cc1Br)OCCO2)c1ccc(=O)[nH]c1 | > 52.7
CCCS(=O)(=O)C/C(N)=N/OC(=O)c1ccccc1Cl | 38 (≈ 119 µM)
O=c1cc(-c2ccc(Cl)cc2)oc(=O)[nH]1 | > 33.5
COc1cccc(C2(C#N)CCN(C)CC2)c1 | > 34.5
N#Cc1ccc(NC(=O)COC(=O)c2cccnc2Cl)cc1 | > 47.4
CCN(CC)CCN=Cc1c(O)n(Cc2ccco2)c(=O)[nH]c1=O | > 50.2
Cc1ccc(C2CC2/C(=N/O)c2ccc(F)cc2)cc1 (centres undefined) | 3.1 (≈ 11.5 µM)
COc1cccc(N2CCN(C(=O)/C=C/c3ccco3)CC2)c1 | 44.6 (≈ 143 µM)
COCCOc1ccc(C(F)(F)F)cc1N | 31.9 (≈ 136 µM)

Compound | solubility kinetic [µg/mL]
COc1ccc(S(=O)(=O)Nc2cccc(F)c2)cc1C | > 44.3
C/C(O)=C(\C#N)P(=O)(c1ccccc1)c1ccccc1 | > 42.5
Cc1ccc(C(CC(=O)N2CCCCC2)c2ccccc2)c(O)c1C (centres undefined) | 3.8 (≈ 11.3 µM)
Cc1ccc(S(=O)(=O)CC(=O)Nc2nc3ccccc3s2)cc1 | 1.3 (≈ 3.75 µM)
CC(C)NC(=O)/C=C/C(=O)O | 22.3 (≈ 142 µM)
CC1CCCN(C(=O)CCNC(=O)c2ccccc2Cl)C1 (centres undefined) | > 46.3
CN1C(=O)c2ccc(NC(=O)c3cccc4ccccc34)cc2C1=O | 0.8 (≈ 2.42 µM)
Cc1[nH]c(=S)c(C#N)c(C)c1CCC#N | > 32.6
CC(=O)Nc1ncc(Cc2ccc(Cl)cc2Cl)s1 | 1 (≈ 3.32 µM)
Cc1cc(Br)cc(Cl)c1OC(=O)c1ccncc1 | 9.5 (≈ 29.1 µM)
COc1cc(OC)cc(C(=O)NCCc2cnc[nH]2)c1 | > 41.3
Cc1ccc(Sc2ccc(C(=O)N(C)C)cc2[N+](=O)[O-])cc1 | 35 (≈ 111 µM)
COc1ccc2nc(NC(=O)c3ccccc3C(=O)O)sc2c1 | > 49.3
CCCCC1CN2CCc3c([nH]c4ccccc34)C2(C)C1.Cl (centres undefined) | 27.7
Brc1cccc2sc(N3CCCC3)nc12 | 5.2 (≈ 18.4 µM)
CCOC(=O)C1CCN(C(=O)CSc2nc3ncccc3[nH]2)CC1 | 51.5 (≈ 148 µM)
CC(C)CN1C(=O)c2ccc(NC(=O)Cc3ccccc3)cc2C1=O | < 0.4
Cc1noc2ncnc(SCc3ccc(C(F)(F)F)cc3)c12 | 1.1 (≈ 3.38 µM)
CCOc1ccc(OCc2ccc(C(=O)N3CCCCC3)o2)cc1 | > 49.4
O=C(Nc1ccc(S(=O)(=O)Nc2nccs2)cc1)C(F)(F)F | > 52.7
CCOC(=O)C1CCN(Cc2cc(=O)oc3cc(C)ccc23)CC1 | 43.1 (≈ 131 µM)
CCOC(=O)N1CCc2c(sc3nc[nH]c(=O)c23)C1 | 38.9 (≈ 139 µM)
CCN(CC)c1nc2ccccc2[nH]c1=O | 10.7 (≈ 49.2 µM)
Nc1cc(N)nc(SCC(=O)NCCC2=CCCCC2)n1 | > 46.1

Compound | solubility kinetic [µg/mL]
COC(=O)c1cc(N=C(N)N=C(N)N)cc(C(=O)OC)c1 | > 44
CCCCOc1ccccc1C1NC(=O)CCC1[N+](=O)[O-] (centres undefined) | > 43.9
CCCCN(C)C(=O)c1nc2ccccn2c1CN1CCSCC1 | 48.3 (≈ 139 µM)
Cc1nc(C)c(C(=O)Nc2cccc(F)c2)s1 | > 37.5
CCCC1Cc2c(sc(N)c2C#N)CO1 (centres undefined) | > 33.3
Cc1noc(NS(=O)(=O)c2ccc(NS(=O)(=O)c3ccc(Cl)cc3)cc2)c1C | > 66.3
CCOc1ccc(OCCn2c(=S)[nH]c3ccccc32)cc1 | 0.9 (≈ 2.86 µM)
COc1ccc(-c2cc(C3CC3)nc(N)c2C#N)cc1 | 1.7 (≈ 6.41 µM)
COc1ccc(/C=C/C(=O)O)cc1S(=O)(=O)N1CCC(C)CC1 | > 50.9
COc1cc(C(=O)NCC2CCCCC2)cc(OC)c1OC | 12.8 (≈ 41.6 µM)
CC(C)N1C(=O)N(c2cccc(Cl)c2)C(C)(O)CC1(C)C (centres undefined) | > 46.6
Cc1cccc(-c2nc(C#N)c(NCc3ccco3)o2)c1 | 1.9 (≈ 6.8 µM)
COc1ccccc1CCC(=O)Oc1ccc(C#N)cc1OC | 9.5 (≈ 30.5 µM)
O=C(NC1=NCCS1)c1ccc(Cl)cc1 | 11.5 (≈ 47.8 µM)
O=S(=O)(Nc1cc(Cl)cc(Cl)c1)N1CCOCC1 | > 46.7
O=C(CCc1c[nH]c2ccccc12)OCc1cccc([N+](=O)[O-])c1 | < 0.3
CN1C(=O)N(C)C(=O)C2(Cc3cc([N+](=O)[O-])ccc3N(C)C2)C1=O | 5.3 (≈ 15.9 µM)
CC(C)CC(=O)Nc1cccc(-c2nc3ccccc3[nH]2)c1 | 32.2 (≈ 110 µM)
COc1cccc(N/C=C/C(=O)c2ccc(C)cc2)c1 | 2.4 (≈ 8.98 µM)
CN(CCC#N)C(=O)COC(=O)c1ccc2c(c1)C(=O)N(C1CCCCC1)C2=O | 16.1 (≈ 40.5 µM)
O=C(O)C1C2CCC(O2)C1C(=O)Nc1ccc(F)c(F)c1 (centres undefined) | 40.5 (≈ 136 µM)
CCc1ccc(C(=O)Nc2nc(C)cs2)s1 | 32.9 (≈ 130 µM)
CCC(C)Nc1nc(N)c([N+](=O)[O-])c(NC2CCCCC2)n1 (centres undefined) | < 0.1
